Drawing on PubChem BioAssay (NCI), this text covers TGI and GI50 for ten molecules.

Test systems include SK-OV-3 ovarian; NCI-H522 lung; UACC-257 melanoma; A549 NSCLC; SK-MEL-28 melanoma; SNB-19 CNS; HCT-116 colon; UACC-62 melanoma; HOP-92 NSCLC; A498 renal.
Holding throughout (assay): NCI-60 cell line screen, 48 h

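Results reflect a 48-hour exposure of cells in 96-well plates to compound at five concentrations. GI50 is the concentration that inhibits growth by half. Definition used: TGI = concentration required for complete inhibition of growth.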

Turning to `O=C(Nc1cc(Cl)ccc1Cl)c1cc2cccc(Br)c2oc1=O`, the TGI in the experiment on SK-OV-3 ovarian, in the experiment on NCI-H522 lung, with UACC-257 melanoma, in the experiment with A549 NSCLC, in the experiment with SK-MEL-28 melanoma and with SNB-19 CNS was over 100 µM each time. Further, the TGI in the experiment with HCT-116 colon and with UACC-62 melanoma was over 100 µM each time.
With `COc1ccc2c3c(c(C(=O)O)oc13)CCC2`, the TGI in the experiment with SK-OV-3 ovarian, in the experiment with HOP-92 NSCLC, in the experiment on NCI-H522 lung, with UACC-257 melanoma, in the experiment with A549 NSCLC and in the experiment on SK-MEL-28 melanoma was over 100 µM in each case. Also, the TGI with SNB-19 CNS, in the experiment with HCT-116 colon and in the experiment on UACC-62 melanoma was over 100 µM each time.
`O=c1cc(-c2ccccc2)oc2ccc(OC/C(=N/O)c3ccc(F)cc3)cc12`: the GI50 with SK-OV-3 ovarian was 4.9 µM; with HOP-92 NSCLC, 11.4 µM; in the experiment with NCI-H522 lung, 4.68 µM; in the experiment on UACC-257 melanoma it was 9.77 µM; in the experiment on A549 NSCLC, 7.12 µM; in the experiment on SK-MEL-28 melanoma, 3.33 µM. Also, the values for the GI50 with SNB-19 CNS, with HCT-116 colon and in the experiment with UACC-62 melanoma were 5.1 µM, 2.97 µM and 5.5 µM, respectively. The TGI with SK-OV-3 ovarian was 30.7 µM; in the experiment on HOP-92 NSCLC, 41.5 µM; in the experiment on NCI-H522 lung, over 50 µM; with UACC-257 melanoma it was 38.2 µM; in the experiment with A549 NSCLC it was over 50 µM; in the experiment on SK-MEL-28 melanoma, 16.2 µM. Also, the TGI in the experiment on SNB-19 CNS was over 50 µM; in the experiment with HCT-116 colon, 9.05 µM; in the experiment on UACC-62 melanoma, 22.8 µM.
In the case of `C=C(C)[C@@H]1C/C=C(/CO)CC[C@H]2O[C@]2(C)CC/C=C(\C)CC1`, the GI50 was 16.1 µM in the experiment with NCI-H522 lung; 22 µM in the experiment with UACC-257 melanoma; 10.4 µM with A498 renal; 16.1 µM with A549 NSCLC; 14.3 µM in the experiment on SK-MEL-28 melanoma; 18 µM with SNB-19 CNS. The figures for the GI50 in the experiment with HCT-116 colon and in the experiment with UACC-62 melanoma were 19.3 µM and 15.1 µM, respectively. The TGI came out at 32.1 µM in the experiment with NCI-H522 lung; 43.6 µM in the experiment with UACC-257 melanoma; 24.3 µM in the experiment with A498 renal; 50.3 µM with A549 NSCLC; 32.1 µM in the experiment on SK-MEL-28 melanoma; 33.8 µM with SNB-19 CNS. The TGI was 38.3 µM with HCT-116 colon and 35.6 µM in the experiment with UACC-62 melanoma.
Regarding `Cc1cc2c(c3nocc13)C(=O)c1ccccc1C2=O`, the TGI in the experiment with SK-OV-3 ovarian, in the experiment on HOP-92 NSCLC, in the experiment with NCI-H522 lung, in the experiment on UACC-257 melanoma, in the experiment on A549 NSCLC and with SK-MEL-28 melanoma was over 100 µM each time. In addition, the TGI in the experiment with SNB-19 CNS and with UACC-62 melanoma was over 100 µM in each case.
As to `Cc1ccc(-c2c(C#N)[n+](=O)c3cc(F)c(F)cc3n2[O-])cc1`, the GI50 in the experiment with HOP-92 NSCLC was 1.68 µM; in the experiment on NCI-H522 lung it was 3.43 µM; in the experiment with UACC-257 melanoma it was 23.5 µM; in the experiment with A498 renal, 21.1 µM; with A549 NSCLC, 28.2 µM; in the experiment on SK-MEL-28 melanoma, 20.5 µM. The GI50 in the experiment with SNB-19 CNS is 18.6 µM; with HCT-116 colon it was 1.23 µM; in the experiment with UACC-62 melanoma, 4.25 µM. Also, the TGI is 3.84 µM with HOP-92 NSCLC; 76.9 µM with NCI-H522 lung; 48.7 µM in the experiment with UACC-257 melanoma; 36.5 µM in the experiment on A498 renal; 86 µM in the experiment with A549 NSCLC; 38.4 µM with SK-MEL-28 melanoma. The TGI in the experiment on SNB-19 CNS amounted to 34.9 µM; with HCT-116 colon, 5.21 µM; in the experiment on UACC-62 melanoma, 16.1 µM.
`Cc1ccc2[nH]c3c(c2c1)N=c1ccccc1=NO3`: the GI50 is 29.9 µM with SK-OV-3 ovarian; over 100 µM in the experiment with HOP-92 NSCLC; 26 µM in the experiment with NCI-H522 lung; 70.6 µM with UACC-257 melanoma; over 100 µM in the experiment with A549 NSCLC; over 100 µM in the experiment with SK-MEL-28 melanoma. Moreover, the GI50 in the experiment on SNB-19 CNS was 32.6 µM; in the experiment on HCT-116 colon it was 83.8 µM; in the experiment with UACC-62 melanoma, 36.5 µM. For the same molecule, the TGI with SK-OV-3 ovarian, with HOP-92 NSCLC, in the experiment on NCI-H522 lung, with UACC-257 melanoma, with A549 NSCLC and in the experiment on SK-MEL-28 melanoma was over 100 µM each time. Moreover, the TGI with SNB-19 CNS, in the experiment on HCT-116 colon and in the experiment on UACC-62 melanoma was over 100 µM each time.
With `CN(C)CCNC(=O)c1cccc2nc3ccc4cccnc4c3nc12`, the TGI was determined as 8.53 µM with SK-OV-3 ovarian; 1.99 µM in the experiment on HOP-92 NSCLC; 1.63 µM in the experiment with UACC-257 melanoma; 0.845 µM in the experiment on A498 renal; 9.65 µM in the experiment on A549 NSCLC; 2.28 µM with SK-MEL-28 melanoma. Moreover, the TGI with SNB-19 CNS amounted to 6.75 µM; in the experiment with HCT-116 colon, 2.43 µM; in the experiment with UACC-62 melanoma, 1.54 µM.
Consider `COC1=CC(=O)C(Br)=CC1=O`, for which the TGI in the experiment on SK-OV-3 ovarian was over 100 µM; in the experiment with HOP-92 NSCLC it was 29.8 µM; in the experiment on NCI-H522 lung, 23.9 µM; with UACC-257 melanoma, 31.1 µM; in the experiment on A549 NSCLC it was over 100 µM; with SK-MEL-28 melanoma, 34 µM. Besides, the TGI with SNB-19 CNS is 32.9 µM; in the experiment on UACC-62 melanoma it was 32.1 µM.
Consider `O=C1OCC(c2ccc(O)cc2)=C1c1cc(O)c(O)c(O)c1`, for which the GI50 with HOP-92 NSCLC, in the experiment on NCI-H522 lung, in the experiment on UACC-257 melanoma, with A498 renal, in the experiment on A549 NSCLC and in the experiment with SK-MEL-28 melanoma was over 100 µM throughout. Further, the GI50 with SNB-19 CNS is over 100 µM; with HCT-116 colon, 36 µM; in the experiment with UACC-62 melanoma it was over 100 µM. For the same molecule, the TGI with HOP-92 NSCLC, with NCI-H522 lung, in the experiment with UACC-257 melanoma, with A498 renal, in the experiment with A549 NSCLC and with SK-MEL-28 melanoma was over 100 µM throughout. In addition, the TGI in the experiment on SNB-19 CNS, with HCT-116 colon and in the experiment with UACC-62 melanoma was over 100 µM in each case.
